# Measurements from patent US8937089B2, “Synergistic mixtures of anthranilamide invertebrate pest control agents” (priority 2004, dated 2015).
# Test system: beet armyworm (Spodoptera exigua)
# Experiment: Test I: control of beet armyworm, spray on tomato plants, excised leaves, % mortality and % feeding at 72 hours
# Type: in vivo
# Procedure: For evaluating control of beet armyworm (Spodoptera exigua), methomyl was in the liquid formulation as Lannate® LV (29% of active ingredient). Compound 1 was in a water dispersible granules (WDG) formulation with 35% active ingredient. The test compounds were dissolved in water. Enough water was added to make 100 ppm of active ingredient for each compound. Serial dilutions were made to obtain the appropriate concentrations. To obtain the desired mixture concentrations of each compound, twice the desired concentration of each of the two mixture partner compounds were mixed together in equal volumes.
# The diluted solutions of the test compounds were sprayed to run-off on three-week-old tomato plants. The plants were placed on a rotating turntable sprayer (10 rpm). Test solutions were applied using a flat fan air-assisted nozzle (Spraying Systems 122440) at 10 psi (69 kPa). After each treated plant had dried, leaves were excised from the treated plant. The leaves were cut into pieces, which were placed singly into 5.5 cm-by-3.5 cm cells of a sixteen-cell plastic tray. Each cell contained a 2.5-cm square of moistened chromatography paper to prevent desiccation. One insect was placed in each cell. There two trays per treatment. […]
smiles,measurement,setting,value
"CNC(=O)c1cc(Cl)cc(C)c1NC(=O)c1cc(Br)nn1-c1ncccc1Cl [Compound 1, 3-bromo-N-[4-chloro-2-methyl-6-[(methylamino)carbonyl]phenyl]-1-(3-chloro-2-pyridinyl)-1H-pyrazole-5-carboxamide]",% feeding,Compound 1 0.022 ppm,9%
same,% feeding,Compound 1 0.041 ppm,6%
same,% feeding,Compound 1 0.163 ppm,2%
same,% feeding,Compound 1 0.209 ppm,2%
same,% feeding,Compound 1 0.30 ppm,1%
same,% feeding,Compound 1 0.60 ppm,1%
same,mortality at 0.022 ppm,"Spodoptera exigua, Compound 1 0.022 ppm, read-out: % mortality (observed)",13%
same,mortality at 0.041 ppm,"Spodoptera exigua, Compound 1 0.041 ppm, read-out: % mortality (observed)",44%
same,mortality at […],"Spodoptera exigua, Compound 1 0.076 ppm, read-out: % mortality (observed)",25%
same,mortality at 0.163 ppm,"Spodoptera exigua, Compound 1 0.163 ppm, read-out: % mortality (observed)",35%
same,mortality at 0.209 ppm,"Spodoptera exigua, Compound 1 0.209 ppm, read-out: % mortality (observed)",47%
same,mortality at 0.3 ppm,"Spodoptera exigua, Compound 1 0.30 ppm, read-out: % mortality (observed)",59%
same,mortality at 0.6 ppm,"Spodoptera exigua, Compound 1 0.60 ppm, read-out: % mortality (observed)",75%
